Reference: US10759796B2, “CXCR4 inhibitors and uses thereof” (X4 Pharmaceuticals, Inc., priority 2016, dated 2020)
pIC50: −log10 of the molar value.

Assays:
[1] = biological target: Jurkat cells expressing CXCR4 (Homo sapiens (Human), UniProt P61073); assay: Chemokine (CXCL12-AF647) binding inhibition assay; conditions: CXCL12-AF647 25 ng/mL, read-out: IC50 CXCL-12 binding Jurkat
Experimental: Chemokine (CXCL12-AF647) Binding Inhibition Assay
Jurkat cells expressing CXCR4 were washed once with assay buffer (Hanks' balanced salt solution with 20 mM HEPES buffer and 0.2% bovine serum albumin, pH 7.4) and then incubated for 15 min at room temperature with the test compounds diluted in assay buffer at dose-dependent concentrations. Subsequently, CXCL12-AF647 (25 ng/mL) was added to the compound-incubated cells. The cells were incubated for 30 min at room temperature. Thereafter, the cells were washed twice in assay buffer, fixed in 1% paraformaldehyde in PBS, and analyzed on the FL4 channel of a FACSCalibur flow cytometer equipped with a 635-nm red diode laser (Becton Dickinson, San Jose, Calif., USA).
The percentages of inhibition of CXCL12-AF647 binding were calculated according to the formula: [1−((MFI−MFINC)/(MFIPC−MFINC))]×100 where MFI is the mean fluorescence intensity of the cells incubated with CXCL12-AF647 in the presence of the inhibitor, MFINC is the mean fluorescence intensity measured in the negative control (i.e., autofluorescence of unlabeled cells), and MFIPC is the mean fluorescence intensity of the positive control (i.e., cells exposed to CXCL12-AF647 alone).

[2] = biological target: CXCR-4 transfected U87 cell line (U87.CXCR4) (Homo sapiens (Human), UniProt P61073); assay: Intracellular CXCL-12-induced calcium mobilization assay (FLIPR); assay type: cell-based; conditions: U87.CXCR4 cells, CXCL-12 25-50 ng/mL; read-out: IC50 CXCL-12 Ca2+ flux U87.CXCR4+
Chain of CXCR-4 transfected U87 cell line (U87.CXCR4) (P61073 whole entry): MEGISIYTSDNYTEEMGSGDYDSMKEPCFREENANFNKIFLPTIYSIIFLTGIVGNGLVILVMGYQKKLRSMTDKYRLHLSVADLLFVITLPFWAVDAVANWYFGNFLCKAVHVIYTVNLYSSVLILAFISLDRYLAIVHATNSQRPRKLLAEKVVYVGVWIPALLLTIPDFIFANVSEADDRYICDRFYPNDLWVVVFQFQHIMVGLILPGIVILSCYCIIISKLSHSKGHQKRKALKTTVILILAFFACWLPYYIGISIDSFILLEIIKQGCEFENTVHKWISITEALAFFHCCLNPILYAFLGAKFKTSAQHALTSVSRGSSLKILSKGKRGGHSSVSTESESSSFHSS
Experimental: Example 28: REGA Screening Assay
Intracellular CXCL-12-Induced Calcium Mobilization Assay
Intracellular calcium mobilization induced by chemokines or chemokine-derived peptides were evaluated using a calcium responsive fluorescent probe and a FLIPR system. The CXCR-4 transfected U87 cell line (U87.CXCR4) cells were seeded in gelatine-coated black-wall 96-well plates at 20,000 cells per well and incubated for 12 hours. Cells were then loaded with the fluorescent calcium probe Fluo-2 acetoxymethyl at 4 μM final concentration in assay buffer (Hanks' balanced salt solution with 20 mM HEPES buffer and 0.2% bovine serum albumin, pH 7.4) for 45 min at 37° C. The intracellular calcium mobilization induced by the CXCL-12 (25-50 ng/mL) was then measured at 37° C. by monitoring the fluorescence as a function of time in all the wells simultaneously using a fluorometric imaging plate reader (FLIPR Tetra, Molecular Devices).

in vitro = conditions: human, Caco-2, pH 7.4
Experimental: Example 28: Caco-2 Permeability Assay
The goal of this assay was to evaluate the intestinal absorption potential of drug candidates using Caco-2 cell lines.
1. Prewarm Prewarm HBSS Buffer in 37° C. water bath
2. Sonicate Take compounds from −20° C., sonicate for a few minutes (no less than 1 minute)
HBSS buffer with 0.3% DMSO and 5 μM LY: add 150 μL DMSO and 50 μL LY (5 mM) into 50 ml HBSS buffer (pH 7.4).
HBSS buffer with 0.1% DMSO and 5 μM LY: add 50 μL DMSO and 50 μL LY (5 mM) into 50 mL HBSS buffer (pH 7.4).
HBSS buffer with 0.3% DMSO: add 150 μL DMSO into 50 ml HBSS buffer (pH 7.4).
HBSS buffer with 0.1% DMSO: add 50 μL DMSO into 50 ml HBSS buffer (pH 7.4).
Receiver Solution Buffer:
Prepare HBSS buffer with 0.4% DMSO: add 200 μL DMSO into 50 ml HBSS buffer (pH 7.4).
Prepare HBSS buffer with 0.4% DMSO and 5 μM LY: add 200 μL DMSO and 50 μL LY (5 mM) into 50 ml HBSS buffer (pH 7.4).
4. Measure TEER Take cell culture plate out of incubator, wash the cell monolayers with HBSS buffer, and then measure TEER values at Rm temperature. 5. Centrifuge Centrifuge the compound solution (from step 3) at 4000 rpm for 5 min before loading to donor chambers. 6. Dosing Add solution based on the volumes listed in the following table (make sure to take extra 100 μL of donor sample for TO as Backup).
7. Apical LYT0 Samples To determine LY concentration in the apical chember, take 100 μL sample from apical chambers into an opaque plate for LYT0. 8. Prewarm Prewarm apical and basolateral plates at 37° C. for about 5 min, then begin transport by placing the apical plate onto basolateral plate. 9. Incubation Keep the plates in incubator at 37° C. for 90 min. 10. Standard Curve Preparation
For 300 μM compound solution, add 6 μL of compound stock solution into 192 μL of MeOH/H2O (1:1).
Prepare Working Solution in MeOH/H2O (1:1)
3 μL (20×)+57 μL of 0.4% DMSO HBSS+60 μL ACN with IS (Osalmid or Imipramine) - - - 120 μL (1×)
11. Transport Termination Separate the apical plate from the basolateral plate after 90-min incubation.
12. Measure LY Take 100 μL samples from basolateral plate to an opaque plate as LYT90.
13. Measure LY concentrations for LYT0 and LYT90 by Fluorometer (at excitation of 485 nm/emission of 535 nm).
Study details: Test concentration 10 μM
Test systems: Caco-2/HBSS solution
Incubation conditions: 0, 90 min at 37° C.
Sample size: Duplicates (n=2)
Bioanalytical method: LC-MS/MS
For Millicell-24 Cell Culture Plates: surface area of the membrane=0.7 cm^2, VA=0.8 mL (A-to-B) or 0.4 mL (B-to-A)
1. Papp values were calculated based on calculated concentrations.
The compound numbers correspond to the compound numbers in Table 1.

Chain of Jurkat cells expressing CXCR4 (P61073 whole entry): as above

Compound	pIC50 [1]	pIC50 [2]	Papp A→B at 90 min, 10 μM (in vitro)	Papp B→A at 90 min, 10 μM (in vitro)	efflux ratio at 90 min, 10 μM (in vitro)
CCN1CCN(c2cccc3nc([C@H]4CCC[C@@H](c5ncccc5C)N4C)c(CO)n23)CC1 [Compound I-61]	7.00 to 11.00	7.00 to 11.00	0.1 to 10 ×10⁻⁶ cm/s	10 to 30 ×10⁻⁶ cm/s	0.1 to 10
CN1CCN(c2cccc3nc([C@H]4CCC[C@@H](c5ncccc5C5CC5)N4)cn23)CC1 [Compound I-179]	7.00 to 11.00	7.00 to 11.00	0.1 to 10 ×10⁻⁶ cm/s	10 to 30 ×10⁻⁶ cm/s	0.1 to 10
Cc1cccnc1[C@@H]1CCC[C@H](c2nc3ccccn3c2COC2CCCN(C)C2)N1C (stereo partly drawn) [Compound I-63]	7.00 to 11.00	6.00 to 7.00	0.1 to 10 ×10⁻⁶ cm/s	10 to 30 ×10⁻⁶ cm/s	10 to 30
Cc1cccnc1[C@@H]1CCC[C@H](c2cn3c(N4CCN(C)CC4)cccc3n2)N1C [Compound I-1]	7.00 to 11.00	7.00 to 11.00	0.1 to 10 ×10⁻⁶ cm/s	10 to 30 ×10⁻⁶ cm/s	0.1 to 10
Cc1cccnc1[C@@H]1CCC[C@H](c2cn3c(N4CCNC5(CC5)C4)cccc3n2)N1 [Compound I-190]	6.00 to 7.00	≤ 6.00	0.1 to 10 ×10⁻⁶ cm/s	> 30 ×10⁻⁶ cm/s	10 to 30
Cc1cccnc1[C@@H]1CCC[C@H](c2nc3cccc(N4CC5CCC(C4)N5C)n3c2Cl)N1C [Compound I-137]	7.00 to 11.00	6.00 to 7.00	0.1 to 10 ×10⁻⁶ cm/s	0.1 to 10 ×10⁻⁶ cm/s	0.1 to 10
Clc1cccnc1[C@@H]1CCC[C@H](c2cn3c(N4CCNC5(CC5)C4)cccc3n2)N1 [Compound I-166]	6.00 to 7.00	≤ 6.00	10 to 30 ×10⁻⁶ cm/s	10 to 30 ×10⁻⁶ cm/s	0.1 to 10
Cc1cccnc1[C@@H]1CCC[C@H](c2nc3c(N)ccc(N4CCN(C)CC4)n3c2Cl)N1C [Compound I-164]	7.00 to 11.00	7.00 to 11.00	10 to 30 ×10⁻⁶ cm/s	10 to 30 ×10⁻⁶ cm/s	0.1 to 10
Clc1cccnc1[C@@H]1CCC[C@H](c2nc3cccc(N4CCNC5(CC5)C4)n3c2Cl)N1 [Compound I-167]	6.00 to 7.00	≤ 6.00	0.1 to 10 ×10⁻⁶ cm/s	0.1 to 10 ×10⁻⁶ cm/s	0.1 to 10
Cc1cccnc1[C@@H]1CCC[C@H](c2nc3ccccn3c2C=C2CCN(C)CC2)N1C [Compound I-83]	7.00 to 11.00	6.00 to 7.00	0.1 to 10 ×10⁻⁶ cm/s	10 to 30 ×10⁻⁶ cm/s	10 to 30
Cc1cccnc1[C@@H]1CCC[C@H](c2cn3c(N4CC5CCC(C4)N5)cccc3n2)N1C [Compound I-109]	7.00 to 11.00	6.00 to 7.00	0.1 to 10 ×10⁻⁶ cm/s	10 to 30 ×10⁻⁶ cm/s	> 30
CN1CC2CCC(C1)N2c1cccc2nc([C@H]3CCC[C@@H](c4ncccc4Cl)N3)cn12 [Compound I-182]	7.00 to 11.00	≤ 6.00	10 to 30 ×10⁻⁶ cm/s	10 to 30 ×10⁻⁶ cm/s	0.1 to 10
Cc1cccnc1[C@@H]1CCC[C@H](c2nc3ccccn3c2CN2CCN(C)CC2)N1C [Compound I-38]	7.00 to 11.00	7.00 to 11.00	0.1 to 10 ×10⁻⁶ cm/s	> 30 ×10⁻⁶ cm/s	> 30
CCN1CCN(c2cccc3nc([C@H]4CCC[C@@H](c5ncccc5Cl)N4C)cn23)CC1 [Compound I-151]	7.00 to 11.00	6.00 to 7.00	10 to 30 ×10⁻⁶ cm/s	10 to 30 ×10⁻⁶ cm/s	0.1 to 10
Cc1cccnc1[C@@H]1CCC[C@H](c2nc3ccccn3c2CN2CCOCC2)N1C [Compound I-73]	6.00 to 7.00	≤ 6.00	10 to 30 ×10⁻⁶ cm/s	10 to 30 ×10⁻⁶ cm/s	0.1 to 10
